Experimental data taken from patent US20070225212A1, “Use of a peptide” (priority 1992, published 2007).
Ends that are not written are not given here.

Key:
[1] = test system: patients with NIDDM and secondary failure to sulfonylurea treatment; assay: Example 2: basal state and standard lunch study in patients with secondary failure to sulfonylurea treatment; type: in vivo, human; conditions: for Insulinogenic index (integrated insulin/integrated glucose response): after ingestion of the meal; for Insulinogenic index (integrated insulin/integrated glucose response) / Blood glucose: GLP-1(7-36)amide 0.75 pmol/kg/min, glibenclamide 1 mg i.v., 8 NIDDM patients with sulfonylurea failure
[2] = test system: insulin treated obese NIDDM patients; assay: Example 1: standard test meal study, meal-related C-peptide response, glucagon response and IMIR; type: in vivo, human; conditions: GLP-1(7-36)amide 0.75 pmol/kg/min infusion for 210 min, glibenclamide 1 mg i.v., 6 insulin treated obese NIDDM patients
[3] = test system: isolated precultured rat pancreatic islets; conditions: in the presence of glucose, dose-dependent; cited from earlier work
healthy volunteers = conditions: peptide infused into healthy volunteers; cited from earlier work
[4] = test system: diabetic as well as nondiabetic subjects; conditions: cited from earlier work
[5] = basal state, 45 minutes after start of administration

Which “Insulinogenic index (integrated insulin/integrated glucose response)” value [1] does the source give for `COc1ccc(Cl)cc1C(=O)NCCc1ccc(S(=O)(=O)NC(=O)NC2CCCCC2)cc1` [glibenclamide] here?
The value was 10.6 ± 2.8,.

What about the “effect on blood glucose and C-peptide levels (in words)” value [1, 5] of the same compound?
Its value is “no significant effect on its own”.

What about the Blood glucose [1, 5] of the same compound?
The Blood glucose was 6.0 ± 0.3 mmol/L.

What about the Glucagon response [2] of the same compound?
Its Glucagon response is “no significant effect”.

For “GLP-1(1-36)amide: amide of a fragment of GLP-1 comprising amino acid residues 1 to 36 (HDEFERHAEGTFTSDVSSYLEGQAAKEFIAWLVKGR-NH2; UniProt P01275 92-127, looked up, fragment)”, which insulin release [3] is on record?
The insulin release was “stimulates insulin release”.

For “GLP-1(7-36)amide: Peptide of formula I, His-Ala-Glu-Gly-Thr-...-Lys-Gly-Arg-X with X = NH2; fragment of glucagon-like peptide-1”, which plasma insulin (healthy volunteers) is on record?
Its plasma insulin is “significant rise in plasma insulin”.

What about the “Insulinogenic index (integrated insulin/integrated glucose response)” value [1] of the same compound?
The value was 21.0 ± 7.2,.

What about the Blood glucose [1, 5] of the same compound?
The Blood glucose was 5.1 ± 0.4 mmol/L.

For “GLP-1(7-37): Peptide of formula I with X = Gly-OH; residues 7 to 37 of GLP-1 (HAEGTFTSDVSSYLEGQAAKEFIAWLVKGRG-OH; UniProt P01275 98-128, looked up, fragment)”, which insulinotropic action [4] is on record?
Its insulinotropic action is “has been demonstrated”.
